The record followed here is patent US12234223B2, “Phthalazinone compound, and preparation method therefor and medical use thereof” (SHANGHAI JEMINCARE PHARMACEUTICALS CO., LTD, priority 2020, dated 2025).

The structures appear in SMILES notation. pIC50: −log10 of the molar value.

One assay concerns VCaP cells. As to the kind of experiment: Inhibitory effect on VCaP cell proliferation (Cell Titer Glo). The format is cell-based. Conditions: Homo sapiens, 144 h; for pIC50: VCaP cells, 5% FBS and 0.1 nM R1881, 6 days; for Emax: maximum degree of VCaP cell proliferation inhibition, 6 days. Here is the method:
A tumor cell line Vcap (ATCC Cat. No. CRL-2876) was respectively cultured with DMEM (Gibco Cat. No. 11965-092) medium containing 10% FBS (Gibco Cat. No. 10099-141C). During testing, Vcap cells were replaced with a DMEM culture fluid containing 5% FBS and 0.1 nM R1881 (Sigma Cat. No. R0908). The assay method was as follows:
Vcap cells were seeded to a 384-well plate (Perkin Elmer Cat. No. 6007460) at a cell density of 1200 cells/well and a volume of 20 μL/well; after the cells were incubated overnight in a carbon dioxide incubator (Thermo), the prepared compound solutions with different concentrations were added at a volume of 5 μL/well; meanwhile, a corresponding solvent was provided as a control; after the cells were continuously incubated in the incubator for 6 days, the cell plate and the contents thereof were equilibrated to room temperature; 25 μL of a Cell Titer Glor (Promega Cat. No. G7573) reagent was added to each well; after vibration and uniform mixing, incubation in the dark was performed for 10-30 minutes, and a signal value was detected with Envision microplate reader (PerkinElmer).
A percentage inhibition rate of compound-treated wells was calculated through solvent control wells on the plate, GraphPad prism was used to fit the percentage inhibition rate data corresponding to different concentrations, and IC50 value was calculated by a 4-parameter nonlinear logistic formula.
Emax: a maximum degree of VCaP cell proliferation inhibition. IC50: a compound concentration required to achieve half the maximum degree of VCaP cell proliferation inhibition.

The target in a further assay is T1, Androgen receptor (Homo sapiens, UniProt P10275).
T1 construct: Dmax: a maximum degradation degree of AR in VCaP cells; endogenous in cells; host or cells: VCaP cells
T1 sequence (P10275 1-920): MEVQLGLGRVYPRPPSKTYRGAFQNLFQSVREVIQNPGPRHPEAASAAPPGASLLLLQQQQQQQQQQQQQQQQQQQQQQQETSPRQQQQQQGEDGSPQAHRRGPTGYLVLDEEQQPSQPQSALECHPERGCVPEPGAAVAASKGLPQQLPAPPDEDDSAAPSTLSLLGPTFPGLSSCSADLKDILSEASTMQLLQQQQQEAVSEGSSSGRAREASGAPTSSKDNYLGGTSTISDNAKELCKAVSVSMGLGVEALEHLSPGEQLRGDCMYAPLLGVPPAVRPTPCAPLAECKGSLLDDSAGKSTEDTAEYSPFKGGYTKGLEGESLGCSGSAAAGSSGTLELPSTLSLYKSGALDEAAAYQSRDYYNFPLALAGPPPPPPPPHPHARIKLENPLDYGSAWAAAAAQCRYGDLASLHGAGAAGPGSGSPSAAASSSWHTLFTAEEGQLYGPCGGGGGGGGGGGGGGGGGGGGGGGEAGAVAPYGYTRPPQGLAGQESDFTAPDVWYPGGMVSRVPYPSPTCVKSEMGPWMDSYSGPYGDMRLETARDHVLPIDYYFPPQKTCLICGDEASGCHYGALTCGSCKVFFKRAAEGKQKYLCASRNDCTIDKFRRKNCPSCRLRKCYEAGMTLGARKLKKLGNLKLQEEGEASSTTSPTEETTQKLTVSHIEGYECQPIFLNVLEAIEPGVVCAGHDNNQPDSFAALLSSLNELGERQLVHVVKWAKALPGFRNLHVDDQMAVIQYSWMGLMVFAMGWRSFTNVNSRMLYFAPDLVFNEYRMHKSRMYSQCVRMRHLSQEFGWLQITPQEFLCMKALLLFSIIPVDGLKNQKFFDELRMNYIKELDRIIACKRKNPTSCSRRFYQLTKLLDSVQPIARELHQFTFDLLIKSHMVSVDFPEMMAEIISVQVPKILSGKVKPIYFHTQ
In words: Androgen receptor In-Cell-Western assay (AR degradation in VCaP cells). It is filed as cell-based. Conditions: 24 hours treatment; for DC50: concentration for half the maximum degradation degree of AR in VCaP cells; for Dmax: maximum degradation degree of AR in VCaP cells. Here is the method: This assay evaluated compound performance in VCap cells. An intracellular androgen receptor was assayed by In-Cell-Western according to the assay procedure described below.
In a 96-well cell culture plate (Corning 3599) pretreated by poly-D-Lysin, Vcap cells were seeded to a Vcap cell assay medium [phenol red containing DMEM (Gibco Cat. No.: 11995065); fetal bovine serum FBS (Gibco Cat. No.: 10099141C)] at a volume of 100 μL/well and a cell density of 50,000 cells/well. Cells were cultured for at least two days. • 1. First, cells were treated with a compound. The compound was subjected to a gradient dilution by using DMSO and a cell culture medium, so that DMSO contained in the cell culture plate was diluted to 0.5%: a polypropylene plate was used according to the following protocol: • (1) (i) A 200× stock solution plate was prepared in DMSO; (ii) a 10 mM stock solution was diluted at 1:4 (10 μL stock solution+40 μL DMSO=2000 uM) with DMSO to enter row 2; (iii) a 1:4 (10 μL protac+40 μL DMSO) gradient dilution was performed from row 2 to row 9, row 1 was reserved for a 2000 uM reference compound and row 10 was reserved for DMSO. (iv) There were 8 concentrations (the final concentrations on the 200× plate was 2000 uM, 400 uM, 80 uM, etc.) in total. (2) (i) A 3× stock solution was prepared in the medium; (ii) 3 μL of the 200× stock solution was transferred to 197 μL of the medium (by a 12-channel pipette, from row 1 to row 10), i.e. a 3× stock solution plate. (iii) Uniform mixing was performed for the stock solution plate. (3) (i) The medium of Vcap cells was replaced with a fresh medium, with the medium volume of 100 μL. (ii) The uniformly-mixed 3× stock solution was transferred to the cell culture plate (by the 12-channel pipette, 50 μL of the stock solution was transferred from row 1 to row 10). (iii) The cells were cultured for 24 hours. • 2. The expression level of the intracellular androgen receptor after compound treatment was detected, and assay was performed according to the following method. • (1) (i) An equal volume of 8% paraformaldehyde was added to the cell culture plate for cell fixation. A fixative solution in the cell plate was discarded, and the cell plate was washed three times with PBS. (ii) A Triton solution was prepared (the stock solution was diluted at 1:1000). The solution in the cell plate was discarded, and a volume of 200 μL of a Triton diluent was added to each well. (iii) A 2× blocking solution was prepared (a 10× blocking stock solution was diluted at 1:4). The solution in the cell plate was discarded, and a volume of 100 μL of the 2× blocking solution was added to each well. (iv) A primary antibody solution (Androgen receptor Rabbit mAb, Cell Signaling Technology Cat. No.: 5153; 1:1000 dilution) was prepared. The solution in the cell plate was discarded, a volume of 100 μL of a primary antibody diluent was added to each well, and incubation was performed at 4 degrees overnight. (v) The primary antibody solution was discarded, and the cell plate was washed with 1× Wash buffer (Wash buffer in the present application means a washing buffer solution). (vi) A secondary antibody solution (Goat anti Rabbit IgG (H+L) Secondary Antibody, HRP, Thermo Cat. No.: 31460; 1:5000 dilution) was prepared, and a volume of 100 μL of a secondary antibody diluent was added to each well for incubation. (vii) The secondary antibody solution in the cell plate was discarded, and the cell plate was washed with 1× Wash buffer. (viii) A TMB chromogenic solution (BD Cat. No.: 550534) was prepared, and a volume of 100 μL of the chromogenic solution was added to each well. (ix) A volume of 50 μL of a stop solution (BD Cat. No.: 550534) was added to each well. (x) Absorption values at OD 450 nm and 570 nm were read by EnVision. (2) (i) Normalized analysis was performed for the number of cells in each well. The solution in the cell plate was discarded, and the cell plate was washed three times with wash buffer. […]

Usually pIC50 stands for the negative decadic logarithm of the IC50, by convention in mol/L. Lower therefore signals a large IC50. What is called DC50 is the concentration giving 50% degradation. Broadly, the Dmax is the greatest extent of degradation seen.

In the assay with VCaP cells, `CC1(C)[C@H](NC(=O)c2cnc(N3CCC(CCN4CCN(c5ccc6c(=O)n(C7CCC(=O)NC7=O)ncc6c5)CC4)CC3)nc2)C(C)(C)[C@H]1Oc1ccc(C#N)c(Cl)c1` (stereo partly shown) [Compound 24] showed a pIC50 of 7.74 and an Emax of 53%. Also, on Androgen receptor, the DC50 amounted to 6.8 nM and the Dmax is 106%.
Consider `CC1(C)[C@H](NC(=O)c2cnc(N3CCCC(CN4CCN(c5ccc6c(=O)n(C7CCC(=O)NC7=O)ncc6c5)CC4)CC3)nc2)C(C)(C)[C@H]1Oc1ccc(C#N)c(Cl)c1` (stereo partly shown) [Compound 25], for which, in the assay on VCaP cells, the pIC50 was 7.57 and the Emax was determined as 62%. Further, at Androgen receptor, the DC50 was 10 nM and the Dmax was found to be 116%.
For the compound `CC1(C)[C@H](NC(=O)c2cnc(N3CCC(CN4CCN(c5ccc6c(=O)n(C7CCC(=O)NC7=O)ncc6c5)CC4)CC3)c(F)c2)C(C)(C)[C@H]1Oc1ccc(C#N)c(Cl)c1` (stereo partly shown) [Compound 26], in the assay with VCaP cells, the pIC50 is 7.35 and the Emax was determined as 60%. Further, at Androgen receptor, it took 32 nM to reach half-maximal degradation (DC50) and the Dmax stood at 109%.
As to `CC1(C)[C@H](NC(=O)c2ccc(N3CCC(CN4CCN(c5ccc6c(=O)n([C@@H]7CCC(=O)NC7=O)ncc6c5)CC4)CC3)cc2)C(C)(C)[C@H]1Oc1ccc(C#N)c(Cl)c1` [Compound 28B], in the assay with VCaP cells, the pIC50 was 7.48 and the Emax turned out to be 71%. On Androgen receptor, the DC50 was 7.2 nM and the Dmax was 101%.
